Data published in patent publication US10961236B2, “(S)-2-(1-cyclopropylethyl)-5-(4-methyl-2-((6-(2-oxopyrrolidin-1-yl)pyridin-2-yl)amino) thiazol-5-yl)-7-(methylsulfonyl)isoindolin-1-one as a phosphatidylinositol 3-kinase inhibitor” (AstraZeneca AB, priority 2016, dated 2021).
pIC50: −log10 of the molar value.

Legend:
Format in all cases: biochemical
[1] = target: recombinant human PI3Kβ (6-His(p110-p85α)) (Homo sapiens (Human), UniProt P42338); assay: Enzymatic activity assay for recombinant human PI3Kβ (ADP-Glo); details: 1.2 nM PI3Kβ, 20 μM ATP, 80 μM DiC8-PIP2, ADP-Glo
Experimental: (§1) Enzymatic Activity Assay for Recombinant Human PI3K α, β, δ and γ.
(§2) The activity of recombinant human PI3Kγ ((aa144-1102)-6His) and PI3Kα, β, δ (6-His(p110-p85α)) was determined by measuring the ADP level after phosphorylation of DiC8-PIP2 using a commercially available ADP-Glo™ kit from Promega. The assay was carried out in white low volume 384 well plates in a final volume of 14 μl at R.T. The assay conditions contained the following: 50 mM Tris buffer pH 7.4, 2.1 mM DTT, 3 mM MgCl2, 0.05% CHAPS, 20 μM ATP, 80 μM DiC8-PIP2 and 1.2 nM PI3Kα, β, γ or 0.6 nM PI3Kδ. Potential inhibitors were made up in DMSO and then diluted in the assay to give a final concentration of not exceeding 1% (v/v) DMSO. […] Routinely, inhibitors were pre-incubated with 3 μl of enzyme for 15 min prior to the addition of 2 μl substrate mixture for a further 60 min enzyme reaction. The phosphorylation was stopped with the addition of 3 μl ADP-Glo™ reagent (stop solution) followed by a 40 min incubation. Prior to detection 6 μl of ADP-Glo™ Kinase Detection Reagent was added and the plates were read in a micro plate reader using a Luminescence filter. All additions were followed by a short centrifugation step.

[2] = target: recombinant human PI3Kγ ((aa144-1102)-6His) (Homo sapiens (Human), UniProt P48736); assay: Enzymatic activity assay for recombinant human PI3Kγ (ADP-Glo); details: 1.2 nM PI3Kγ, 20 μM ATP, 80 μM DiC8-PIP2, ADP-Glo
Experimental: as §1
as §2, with “PI3Kδ.” for “PI3Kδ. Potential inhibitors were made up in DMSO and then diluted in the assay to give a final concentration of not exceeding 1% (v/v) DMSO.”

[3] = target: recombinant human PI3Kδ (6-His(p110-p85α)) (Homo sapiens (Human), UniProt O00329); assay: Enzymatic activity assay for recombinant human PI3Kδ (ADP-Glo); details: 0.6 nM PI3Kδ, 20 μM ATP, 80 μM DiC8-PIP2, ADP-Glo
Experimental: as §1
as §2, with “PI3Kδ.” for “PI3Kδ. Potential inhibitors were made up in DMSO and then diluted in the assay to give a final concentration of not exceeding 1% (v/v) DMSO.”

[4] = target: recombinant human PI3Kα (6-His(p110-p85α)) (Homo sapiens (Human), UniProt P42336); assay: Enzymatic activity assay for recombinant human PI3Kα (ADP-Glo); details: 1.2 nM PI3Kα, 20 μM ATP, 80 μM DiC8-PIP2, ADP-Glo
Experimental: as §1, §2

Chain of recombinant human PI3Kγ ((aa144-1102)-6His) (P48736 144-1102): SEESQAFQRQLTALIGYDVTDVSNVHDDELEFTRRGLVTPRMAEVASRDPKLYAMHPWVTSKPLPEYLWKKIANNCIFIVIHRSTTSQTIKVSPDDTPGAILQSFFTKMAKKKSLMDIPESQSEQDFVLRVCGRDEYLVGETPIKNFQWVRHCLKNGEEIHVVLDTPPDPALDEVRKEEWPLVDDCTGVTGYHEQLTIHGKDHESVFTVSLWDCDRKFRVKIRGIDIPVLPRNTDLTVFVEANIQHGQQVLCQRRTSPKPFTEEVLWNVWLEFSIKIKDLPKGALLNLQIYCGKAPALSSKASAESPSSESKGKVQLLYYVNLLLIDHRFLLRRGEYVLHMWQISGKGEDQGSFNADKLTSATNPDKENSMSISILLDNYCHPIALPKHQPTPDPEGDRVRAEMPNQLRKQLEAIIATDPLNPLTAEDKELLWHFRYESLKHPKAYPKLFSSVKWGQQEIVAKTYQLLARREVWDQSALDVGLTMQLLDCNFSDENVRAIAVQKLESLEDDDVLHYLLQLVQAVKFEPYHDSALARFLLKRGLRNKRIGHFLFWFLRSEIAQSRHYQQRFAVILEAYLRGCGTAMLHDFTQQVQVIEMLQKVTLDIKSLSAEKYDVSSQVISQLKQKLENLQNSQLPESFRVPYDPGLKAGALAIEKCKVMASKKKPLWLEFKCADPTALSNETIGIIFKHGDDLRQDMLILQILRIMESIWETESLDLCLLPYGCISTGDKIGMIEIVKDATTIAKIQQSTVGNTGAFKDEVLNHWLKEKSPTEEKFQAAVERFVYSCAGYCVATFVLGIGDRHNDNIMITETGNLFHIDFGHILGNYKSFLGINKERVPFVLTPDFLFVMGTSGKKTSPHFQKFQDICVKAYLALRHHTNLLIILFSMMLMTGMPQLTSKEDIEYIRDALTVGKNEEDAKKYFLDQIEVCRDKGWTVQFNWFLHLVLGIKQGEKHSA
Chain of recombinant human PI3Kα (6-His(p110-p85α)) (P42336 whole entry): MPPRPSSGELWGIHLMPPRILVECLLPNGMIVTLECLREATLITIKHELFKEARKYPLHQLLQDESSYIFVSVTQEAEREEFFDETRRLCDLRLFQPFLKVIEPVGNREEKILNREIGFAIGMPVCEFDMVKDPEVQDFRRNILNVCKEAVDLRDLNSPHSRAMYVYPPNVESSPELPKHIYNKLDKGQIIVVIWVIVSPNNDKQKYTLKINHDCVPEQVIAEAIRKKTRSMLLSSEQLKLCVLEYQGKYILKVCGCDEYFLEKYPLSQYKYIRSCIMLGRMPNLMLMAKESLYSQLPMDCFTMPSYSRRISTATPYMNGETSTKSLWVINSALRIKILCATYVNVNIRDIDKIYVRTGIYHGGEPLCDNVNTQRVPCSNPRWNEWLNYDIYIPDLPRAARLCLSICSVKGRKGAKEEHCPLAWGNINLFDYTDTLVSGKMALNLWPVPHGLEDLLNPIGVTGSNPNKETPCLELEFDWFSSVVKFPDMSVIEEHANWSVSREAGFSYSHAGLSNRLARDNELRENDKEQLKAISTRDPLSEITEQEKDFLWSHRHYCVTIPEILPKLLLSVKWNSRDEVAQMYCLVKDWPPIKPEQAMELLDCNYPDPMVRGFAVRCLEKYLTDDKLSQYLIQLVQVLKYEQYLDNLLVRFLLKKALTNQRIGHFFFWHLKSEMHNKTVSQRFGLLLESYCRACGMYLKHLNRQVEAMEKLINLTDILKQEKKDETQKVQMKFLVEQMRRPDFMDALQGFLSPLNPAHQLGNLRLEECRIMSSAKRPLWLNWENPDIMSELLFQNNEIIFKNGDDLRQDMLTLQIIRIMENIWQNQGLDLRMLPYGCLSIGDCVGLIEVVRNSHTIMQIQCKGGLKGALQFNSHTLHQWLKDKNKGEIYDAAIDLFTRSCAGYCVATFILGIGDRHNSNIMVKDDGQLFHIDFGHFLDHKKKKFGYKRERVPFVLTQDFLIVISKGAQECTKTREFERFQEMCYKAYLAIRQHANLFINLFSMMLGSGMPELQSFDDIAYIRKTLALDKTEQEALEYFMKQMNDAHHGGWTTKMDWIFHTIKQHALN
Chain of recombinant human PI3Kα (6-His(p110-p85α)) (P27986 whole entry partner): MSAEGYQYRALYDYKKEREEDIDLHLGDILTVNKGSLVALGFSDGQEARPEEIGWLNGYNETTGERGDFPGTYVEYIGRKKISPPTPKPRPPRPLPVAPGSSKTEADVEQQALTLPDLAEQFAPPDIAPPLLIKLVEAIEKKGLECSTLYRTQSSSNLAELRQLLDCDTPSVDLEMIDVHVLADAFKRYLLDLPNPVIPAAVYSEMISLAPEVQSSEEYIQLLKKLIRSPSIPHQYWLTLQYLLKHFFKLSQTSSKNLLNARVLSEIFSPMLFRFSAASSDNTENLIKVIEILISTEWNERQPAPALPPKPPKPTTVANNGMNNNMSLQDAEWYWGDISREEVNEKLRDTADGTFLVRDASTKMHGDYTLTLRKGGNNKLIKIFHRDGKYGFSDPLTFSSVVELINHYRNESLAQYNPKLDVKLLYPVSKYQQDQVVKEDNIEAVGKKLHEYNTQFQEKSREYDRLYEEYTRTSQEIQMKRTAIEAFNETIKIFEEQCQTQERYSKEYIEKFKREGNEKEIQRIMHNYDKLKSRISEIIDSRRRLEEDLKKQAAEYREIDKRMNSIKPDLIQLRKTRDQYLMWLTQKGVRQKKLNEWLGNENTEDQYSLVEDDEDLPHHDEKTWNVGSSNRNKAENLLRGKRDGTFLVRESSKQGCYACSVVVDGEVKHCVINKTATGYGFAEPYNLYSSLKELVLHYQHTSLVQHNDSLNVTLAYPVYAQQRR
Chain of recombinant human PI3Kδ (6-His(p110-p85α)) (O00329 whole entry): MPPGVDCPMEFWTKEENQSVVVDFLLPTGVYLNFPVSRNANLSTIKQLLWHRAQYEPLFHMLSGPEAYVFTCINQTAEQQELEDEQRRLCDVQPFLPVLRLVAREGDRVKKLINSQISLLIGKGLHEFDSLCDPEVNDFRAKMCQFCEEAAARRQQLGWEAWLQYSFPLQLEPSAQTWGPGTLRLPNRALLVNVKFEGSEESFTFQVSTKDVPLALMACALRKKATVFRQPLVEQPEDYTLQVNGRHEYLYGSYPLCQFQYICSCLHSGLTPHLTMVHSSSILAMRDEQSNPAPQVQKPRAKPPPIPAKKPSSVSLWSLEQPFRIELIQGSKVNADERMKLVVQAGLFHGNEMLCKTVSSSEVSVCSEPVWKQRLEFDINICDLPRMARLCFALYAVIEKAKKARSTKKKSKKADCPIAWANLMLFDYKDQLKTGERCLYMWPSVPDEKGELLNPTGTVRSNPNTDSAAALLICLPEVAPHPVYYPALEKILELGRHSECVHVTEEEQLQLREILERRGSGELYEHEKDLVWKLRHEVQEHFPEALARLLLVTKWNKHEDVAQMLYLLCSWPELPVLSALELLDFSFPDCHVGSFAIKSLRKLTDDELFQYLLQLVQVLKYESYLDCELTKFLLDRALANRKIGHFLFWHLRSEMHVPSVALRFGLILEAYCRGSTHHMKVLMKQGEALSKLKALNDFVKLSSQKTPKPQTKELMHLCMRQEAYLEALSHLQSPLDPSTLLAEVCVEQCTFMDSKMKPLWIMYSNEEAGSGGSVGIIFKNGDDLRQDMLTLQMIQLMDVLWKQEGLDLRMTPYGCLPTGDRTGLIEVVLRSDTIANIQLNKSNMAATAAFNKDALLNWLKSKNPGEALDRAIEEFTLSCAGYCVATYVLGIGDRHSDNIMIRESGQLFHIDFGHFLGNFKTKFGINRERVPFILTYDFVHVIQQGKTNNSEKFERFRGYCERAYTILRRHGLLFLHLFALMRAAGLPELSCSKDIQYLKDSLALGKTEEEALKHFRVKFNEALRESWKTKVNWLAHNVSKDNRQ
Chain of recombinant human PI3Kδ (6-His(p110-p85α)) (P27986 whole entry partner): as the sequence (P27986 whole entry partner) above
Chain of recombinant human PI3Kβ (6-His(p110-p85α)) (P42338 whole entry): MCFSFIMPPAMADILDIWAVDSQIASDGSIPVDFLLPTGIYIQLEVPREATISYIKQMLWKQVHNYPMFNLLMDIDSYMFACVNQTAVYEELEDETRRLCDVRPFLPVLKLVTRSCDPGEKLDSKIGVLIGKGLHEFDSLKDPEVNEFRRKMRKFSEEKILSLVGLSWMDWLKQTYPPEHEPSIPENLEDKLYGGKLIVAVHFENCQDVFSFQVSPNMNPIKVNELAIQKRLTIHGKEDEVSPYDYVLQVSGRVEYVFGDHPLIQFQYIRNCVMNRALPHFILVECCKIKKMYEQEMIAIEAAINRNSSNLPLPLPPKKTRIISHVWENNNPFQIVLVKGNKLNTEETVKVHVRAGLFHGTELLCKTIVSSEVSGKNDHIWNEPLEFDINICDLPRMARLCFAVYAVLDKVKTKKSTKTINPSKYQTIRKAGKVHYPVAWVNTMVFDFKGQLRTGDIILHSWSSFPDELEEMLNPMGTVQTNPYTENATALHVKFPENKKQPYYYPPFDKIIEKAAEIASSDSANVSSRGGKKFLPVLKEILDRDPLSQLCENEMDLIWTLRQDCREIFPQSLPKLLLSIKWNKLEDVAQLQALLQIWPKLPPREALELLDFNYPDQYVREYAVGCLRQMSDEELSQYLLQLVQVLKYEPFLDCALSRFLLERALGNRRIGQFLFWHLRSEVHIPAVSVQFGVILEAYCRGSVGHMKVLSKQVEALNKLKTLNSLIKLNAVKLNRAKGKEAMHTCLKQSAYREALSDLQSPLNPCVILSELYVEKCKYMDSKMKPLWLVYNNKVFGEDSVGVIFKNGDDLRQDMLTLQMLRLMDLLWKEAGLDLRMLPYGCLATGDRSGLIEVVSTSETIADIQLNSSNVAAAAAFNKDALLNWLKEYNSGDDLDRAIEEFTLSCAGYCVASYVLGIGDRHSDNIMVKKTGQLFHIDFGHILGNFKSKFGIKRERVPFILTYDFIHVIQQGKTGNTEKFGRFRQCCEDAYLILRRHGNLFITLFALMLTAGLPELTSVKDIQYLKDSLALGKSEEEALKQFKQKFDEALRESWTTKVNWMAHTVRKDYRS
Chain of recombinant human PI3Kβ (6-His(p110-p85α)) (P27986 whole entry partner): as the sequence (P27986 whole entry partner) above

For CNS(=O)(=O)c1cc(-c2sc(Nc3cccc(N(C)C(=O)COC)n3)nc2C)cc2c1C(=O)N([C@@H](C)C1CC1)C2 [Example 14, N-{6-[(5-{2-[(1S)-1-Cyclopropylethyl]-7-(methylsulfamoyl)-1-oxo-2,3-dihydro-1H-isoindol-5-yl}-4-methyl-1,3-thiazol-2-yl)amino]pyridin-2-yl}-2-methoxy-N-methylacetamide], the pIC50 [1] was 6.14, the pIC50 [2] was 9.05 and the pIC50 [3] was 9.40. The pIC50 [4] was 7.10.

CNS(=O)(=O)c1cc(-c2sc(Nc3cccc(N(C)C(=O)[C@@H](C)OC)n3)nc2C)cc2c1C(=O)N([C@@H](C)C1CC1)C2 [Example 15, (2R)—N-{6-[(5-{2-[(1S)-1-Cyclopropylethyl]-7-(methylsulfamoyl)-1-oxo-2,3-dihydro-1H-isoindol-5-yl}-4-methyl-1,3-thiazol-2-yl)amino]pyridin-2-yl}-2-methoxy-N-methylpropanamide] showed a pIC50 [1] of 5.93, a pIC50 [2] of 9.00 and a pIC50 [3] of 8.92. It also gave a pIC50 [4] of 7.05.

CNS(=O)(=O)c1cc(-c2sc(Nc3cccc(N(C)C(=O)[C@H](C)OC)n3)nc2C)cc2c1C(=O)N([C@@H](C)C1CC1)C2 [Example 16, (2S)—N-{6-[(5-{2-[(1S)-1-Cyclopropylethyl]-7-(methylsulfamoyl)-1-oxo-2,3-dihydro-1H-isoindol-5-yl}-4-methyl-1,3-thiazol-2-yl)amino]pyridin-2-yl}-2-methoxy-N-methylpropanamide] gave a pIC50 [1] of 6.27, a pIC50 [2] of 8.92 and a pIC50 [3] of 9.10. The pIC50 [4] was 7.26.

CCOCC(=O)N(C)c1cccc(Nc2nc(C)c(-c3cc4c(c(S(=O)(=O)NC)c3)C(=O)N([C@@H](C)C3CC3)C4)s2)n1 [Example 17, N-{6-[(5-{2-[(1S)-1-Cyclopropylethyl]-7-(methylsulfamoyl)-1-oxo-2,3-dihydro-1H-isoindol-5-yl}-4-methyl-1,3-thiazol-2-yl)amino]pyridin-2-yl}-2-ethoxy-N-methylacetamide] showed a pIC50 [1] of 6.17, a pIC50 [2] of 8.96 and a pIC50 [3] of 9.52. The pIC50 [4] was 7.32.

Molecule CCN(C(=O)COC)c1cccc(Nc2nc(C)c(-c3cc4c(c(S(=O)(=O)NC)c3)C(=O)N([C@@H](C)C3CC3)C4)s2)n1 [Example 18, N-{6-[(5-{2-[(1S)-1-Cyclopropylethyl]-7-(methylsulfamoyl)-1-oxo-2,3-dihydro-1H-isoindol-5-yl}-4-methyl-1,3-thiazol-2-yl)amino]pyridin-2-yl}-N-ethyl-2-methoxyacetamide] has a pIC50 [1] of 6.64, a pIC50 [2] of 9.10 and a pIC50 [3] of 9.52. It also gave a pIC50 [4] of 7.60.

For CNS(=O)(=O)c1cc(-c2sc(Nc3cccc(N4CCOCC4=O)n3)nc2C)cc2c1C(=O)N([C@@H](C)C1CC1)C2 [Example 20, 2-[(1S)-1-Cyclopropylethyl]-N-methyl-6-(4-methyl-2-{[6-(3-oxomorpholin-4-yl)pyridin-2-yl]amino}-1,3-thiazol-5-yl)-3-oxo-2,3-dihydro-1H-isoindole-4-sulfonamide], the pIC50 [1] was 6.27, the pIC50 [2] was 9.05 and the pIC50 [3] was 9.15. For the same molecule, the pIC50 [4] was 7.43.

CNS(=O)(=O)c1cc(-c2sc(Nc3cccc(N4CCCOC4=O)n3)nc2C)cc2c1C(=O)N([C@@H](C)C1CC1)C2 [Example 21, 2-[(1S)-1-Cyclopropylethyl]-N-methyl-6-(4-methyl-2-{[6-(2-oxo-1,3-oxazinan-3-yl)pyridin-2-yl]amino}-1,3-thiazol-5-yl)-3-oxo-2,3-dihydro-1H-isoindole-4-sulfonamide] showed a pIC50 [1] of 6.99, a pIC50 [2] of 8.96 and a pIC50 [3] of 9.22. It also gave a pIC50 [4] of 7.72.

CNS(=O)(=O)c1cc(-c2sc(Nc3cccc(N4CCN(C)CC4=O)n3)nc2C)cc2c1C(=O)N([C@@H](C)C1CC1)C2 [Example 22, 2-[(1S)-1-Cyclopropylethyl]-N-methyl-6-(4-methyl-2-{[6-(4-methyl-2-oxopiperazin-1-yl)pyridin-2-yl]amino}-1,3-thiazol-5-yl)-3-oxo-2,3-dihydro-1H-isoindole-4-sulfonamide] showed a pIC50 [1] of 6.48, a pIC50 [2] of 9.00 and a pIC50 [3] of 8.89. The pIC50 [4] was 7.42.

In the case of CNS(=O)(=O)c1cc(-c2sc(Nc3cccc(N4CC(=O)N5CCC[C@H]5C4=O)n3)nc2C)cc2c1C(=O)N([C@@H](C)C1CC1)C2 [Example 23, 2-[(1S)-1-Cyclopropylethyl]-6-[2-({6-[(8aS)-1,4-dioxohexahydropyrrolo[1,2-a]pyrazin-2(1H)-yl]pyridin-2-yl}amino)-4-methyl-1,3-thiazol-5-yl]-N-methyl-3-oxo-2,3-dihydro-1H-isoindole-4-sulfonamide], the pIC50 [1] was 5.31, the pIC50 [2] was 8.89 and the pIC50 [3] was 7.71. For the same molecule, the pIC50 [4] was 6.43.

CNS(=O)(=O)c1cc(-c2sc(Nc3cccc(N4CCCS4(=O)=O)n3)nc2C)cc2c1C(=O)N([C@@H](C)C1CC1)C2 [Example 24, 2-[(1S)-1-Cyclopropylethyl]-6-(2-{[6-(1,1-dioxido-1,2-thiazolidin-2-yl)pyridin-2-yl]amino}-4-methyl-1,3-thiazol-5-yl)-N-methyl-3-oxo-2,3-dihydro-1H-isoindole-4-sulfonamide] gave a pIC50 [1] of 6.05, a pIC50 [2] of 9.05 and a pIC50 [3] of 9.40. It also gave a pIC50 [4] of 7.38.

Molecule CNS(=O)(=O)c1cc(-c2sc(Nc3cccc(N4CCCC4=O)n3)nc2C)cc2c1C(=O)N([C@@H](C)C(F)(F)F)C2 [Example 25, N-Methyl-6-(4-methyl-2-{[6-(2-oxopyrrolidin-1-yl)pyridin-2-yl]amino}-1,3-thiazol-5-yl)-3-oxo-2-[(2S)-1,1,1-trifluoropropan-2-yl]-2,3-dihydro-1H-isoindole-4-sulfonamide] has a pIC50 [1] of 6.30, a pIC50 [2] of 8.96 and a pIC50 [3] of 9.15. It also gave a pIC50 [4] of 7.15.

CCNS(=O)(=O)c1cc(-c2sc(Nc3cccc(N(C)C(=O)COC)n3)nc2C)cc2c1C(=O)N([C@@H](C)C1CC1)C2 [Example 26, N-{6-[(5-{2-[(1S)-1-Cyclopropylethyl]-7-(ethylsulfamoyl)-1-oxo-2,3-dihydro-1H-isoindol-5-yl}-4-methyl-1,3-thiazol-2-yl)amino]pyridin-2-yl}-2-methoxy-N-methylacetamide] showed a pIC50 [1] of 6.25, a pIC50 [2] of 8.96 and a pIC50 [3] of 9.30. The pIC50 [4] was 6.96.

CCNS(=O)(=O)c1cc(-c2sc(Nc3cccc(N4CCOCC4=O)n3)nc2C)cc2c1C(=O)N([C@@H](C)C(F)(F)F)C2 [Example 27, N-Ethyl-6-(4-methyl-2-{[6-(3-oxomorpholin-4-yl)pyridin-2-yl]amino}-1,3-thiazol-5-yl)-3-oxo-2-[(2S)-1,1,1-trifluoropropan-2-yl]-2,3-dihydro-1H-isoindole-4-sulfonamide] was tested, and the pIC50 [1] was 6.75, the pIC50 [2] was 9.05 and the pIC50 [3] was 9.15. It also gave a pIC50 [4] of 7.19.

Cc1nc(Nc2cccc(N3CCOCC3=O)n2)sc1-c1cc2c(c(S(=O)(=O)NC(C)C)c1)C(=O)N([C@@H](C)C(F)(F)F)C2 [Example 28, 6-(4-Methyl-2-{[6-(3-oxomorpholin-4-yl)pyridin-2-yl]amino}-1,3-thiazol-5-yl)-3-oxo-N-(propan-2-yl)-2-[(2S)-1,1,1-trifluoropropan-2-yl]-2,3-dihydro-1H-isoindole-4-sulfonamide] was tested, and the pIC50 [1] was 6.10, the pIC50 [2] was 8.59 and the pIC50 [3] was 8.92. It also gave a pIC50 [4] of 6.50.

Cc1nc(Nc2cccc(N3CCCOC3=O)n2)sc1-c1cc2c(c(S(=O)(=O)NC(C)C)c1)C(=O)N([C@@H](C)C(F)(F)F)C2 [Example 29, 6-(4-Methyl-2-{[6-(2-oxo-1,3-oxazinan-3-yl)pyridin-2-yl]amino}-1,3-thiazol-5-yl)-3-oxo-N-(propan-2-yl)-2-[(2S)-1,1,1-trifluoropropan-2-yl]-2,3-dihydro-1H-isoindole-4-sulfonamide] showed a pIC50 [1] of 7.21, a pIC50 [2] of 8.66 and a pIC50 [3] of 9.30. It also gave a pIC50 [4] of 7.33.
